In ChEMBL document CHEMBL1201862, “PubChem BioAssay data set” (2004):
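Interpolation was linear, between the two tested concentrations surrounding the appropriate level; five concentrations were tested over 48 hours in 96-well plates. GI50 is the concentration that inhibits growth by half.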 The source made the active and inactive calls. Cut-off read from the data, not from the text of the source: active = GI50 up to about 1.1 µM and inactive = higher.

Key:
Experiment in all cases: growth of human tumour cells (NCI), 48 h
MOLT-4 = test system: MOLT-4
NCI-H226 = test system: NCI-H226
OVCAR-3 = test system: OVCAR-3
786-0 = test system: 786-0
RXF 393 = test system: RXF 393
RPMI-8226 = test system: RPMI-8226
OVCAR-8 = test system: OVCAR-8
A549 = test system: A549
HT-29 = test system: HT-29
UACC-257 = test system: UACC-257
HCC 2998 = test system: HCC 2998
LOX IMVI = test system: LOX IMVI
SK-OV-3 = test system: SK-OV-3
KM12 = test system: KM12
SF-295 = test system: SF-295
SW-620 = test system: SW-620
COLO 205 = test system: COLO 205
BT-549 = test system: BT-549
CAKI-1 = test system: CAKI-1
MDA-MB-231 = test system: MDA-MB-231
EKVX = test system: EKVX
NCI-H23 = test system: NCI-H23
PC-3 = test system: PC-3
SN12C = test system: SN12C
MDA-N = test system: MDA-N
Malme-3M = test system: Malme-3M
HCT-116 = test system: HCT-116
ACHN = test system: ACHN
HCT-15 = test system: HCT-15
MDA-MB-435 = test system: MDA-MB-435
SR = test system: SR
HOP-92 = test system: HOP-92
K562 = test system: K562
SF-539 = test system: SF-539
DU-145 = test system: DU-145
SK-MEL-2 = test system: SK-MEL-2
IGROV-1 = test system: IGROV-1
A498 = test system: A498
T47D = test system: T47D
NCI-H522 = test system: NCI-H522
HOP-62 = test system: HOP-62
Hs-578T = test system: Hs-578T
CCRF-CEM = test system: CCRF-CEM
OVCAR-5 = test system: OVCAR-5
U-251 = test system: U-251
NCI-H460 = test system: NCI-H460
OVCAR-4 = test system: OVCAR-4
SF-268 = test system: SF-268
UO-31 = test system: UO-31
SK-MEL-5 = test system: SK-MEL-5
M14 = test system: M14
MCF7 = test system: MCF7
TK-10 = test system: TK-10
SNB-19 = test system: SNB-19
HL-60 = test system: HL-60
SK-MEL-28 = test system: SK-MEL-28

## C=CCNC(=O)N1CC(C)C(=O)Nc2ccccc21 (stereo unspecified)
MOLT-4
  GI50: > 100 µM (inactive)
NCI-H226
  GI50: > 100 µM (inactive)
OVCAR-3
  GI50: > 100 µM (inactive)
786-0
  GI50: > 100 µM (inactive)
RXF 393
  GI50: > 100 µM (inactive)
RPMI-8226
  GI50: > 100 µM (inactive)
OVCAR-8
  GI50: > 100 µM (inactive)
A549
  GI50: > 100 µM (inactive)
HT-29
  GI50: > 100 µM (inactive)
UACC-257
  GI50: > 100 µM (inactive)
HCC 2998
  GI50: > 100 µM (inactive)
LOX IMVI
  GI50: > 100 µM (inactive)
SK-OV-3
  GI50: > 100 µM (inactive)
KM12
  GI50: > 100 µM (inactive)
SF-295
  GI50: > 100 µM (inactive)
SW-620
  GI50: > 100 µM (inactive)
COLO 205
  GI50: > 100 µM (inactive)
BT-549
  GI50: > 100 µM (inactive)
CAKI-1
  GI50: > 100 µM (inactive)
MDA-MB-231
  GI50: > 100 µM (inactive)
EKVX
  GI50: > 100 µM (inactive)
NCI-H23
  GI50: > 100 µM (inactive)
PC-3
  GI50: > 100 µM (inactive)
SN12C
  GI50: > 100 µM (inactive)
MDA-N
  GI50: > 100 µM (inactive)
Malme-3M
  GI50: > 100 µM (inactive)
HCT-116
  GI50: > 100 µM (inactive)
ACHN
  GI50: > 100 µM (inactive)
HCT-15
  GI50: > 100 µM
MDA-MB-435
  GI50: > 100 µM (inactive)
SR
  GI50: > 100 µM (inactive)
HOP-92
  GI50: > 100 µM (inactive)
K562
  GI50: > 100 µM (inactive)
SF-539
  GI50: > 100 µM (inactive)
DU-145
  GI50: > 100 µM (inactive)
SK-MEL-2
  GI50: > 100 µM (inactive)
IGROV-1
  GI50: > 100 µM (inactive)
A498
  GI50: > 100 µM (inactive)
T47D
  GI50: > 100 µM (inactive)
NCI-H522
  GI50: > 100 µM (inactive)
HOP-62
  GI50: > 100 µM (inactive)
Hs-578T
  GI50: > 100 µM (inactive)
CCRF-CEM
  GI50: > 100 µM (inactive)
OVCAR-5
  GI50: > 100 µM (inactive)
U-251
  GI50: > 100 µM (inactive)
NCI-H460
  GI50: > 100 µM (inactive)
OVCAR-4
  GI50: > 100 µM (inactive)
SF-268
  GI50: > 100 µM (inactive)
UO-31
  GI50: > 100 µM (inactive)
SK-MEL-5
  GI50: > 100 µM (inactive)
M14
  GI50: > 100 µM (inactive)
MCF7
  GI50: > 100 µM (inactive)
TK-10
  GI50: > 100 µM (inactive)
SNB-19
  GI50: > 100 µM (inactive)
HL-60
  GI50: > 100 µM (inactive)
SK-MEL-28
  GI50: > 100 µM (inactive)
